In the first data set the target is Cytochrome P450 2E1 (Homo sapiens, UniProt P05181). Also: in other assays of this panel Not Active means under 50% inhibition at 10 µM.
Chain of Cytochrome P450 2E1 (P05181 whole entry): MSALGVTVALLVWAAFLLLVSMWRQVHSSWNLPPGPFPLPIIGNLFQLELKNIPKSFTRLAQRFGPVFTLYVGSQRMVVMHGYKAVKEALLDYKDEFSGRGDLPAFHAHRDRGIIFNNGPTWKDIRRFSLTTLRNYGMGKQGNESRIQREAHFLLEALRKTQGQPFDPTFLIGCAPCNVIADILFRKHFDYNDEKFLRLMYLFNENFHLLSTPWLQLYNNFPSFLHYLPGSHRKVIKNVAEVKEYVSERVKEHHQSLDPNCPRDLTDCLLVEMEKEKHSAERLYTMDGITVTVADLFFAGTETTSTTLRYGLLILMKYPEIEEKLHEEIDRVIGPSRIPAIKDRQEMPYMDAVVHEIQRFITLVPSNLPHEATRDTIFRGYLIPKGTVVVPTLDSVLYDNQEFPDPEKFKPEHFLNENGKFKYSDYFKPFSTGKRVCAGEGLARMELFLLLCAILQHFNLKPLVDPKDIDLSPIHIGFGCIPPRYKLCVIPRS
Assay: not given
To be noted: bti-tn-5b1-4.
Chain of Tyrosine-protein kinase Lck (P06239 whole entry): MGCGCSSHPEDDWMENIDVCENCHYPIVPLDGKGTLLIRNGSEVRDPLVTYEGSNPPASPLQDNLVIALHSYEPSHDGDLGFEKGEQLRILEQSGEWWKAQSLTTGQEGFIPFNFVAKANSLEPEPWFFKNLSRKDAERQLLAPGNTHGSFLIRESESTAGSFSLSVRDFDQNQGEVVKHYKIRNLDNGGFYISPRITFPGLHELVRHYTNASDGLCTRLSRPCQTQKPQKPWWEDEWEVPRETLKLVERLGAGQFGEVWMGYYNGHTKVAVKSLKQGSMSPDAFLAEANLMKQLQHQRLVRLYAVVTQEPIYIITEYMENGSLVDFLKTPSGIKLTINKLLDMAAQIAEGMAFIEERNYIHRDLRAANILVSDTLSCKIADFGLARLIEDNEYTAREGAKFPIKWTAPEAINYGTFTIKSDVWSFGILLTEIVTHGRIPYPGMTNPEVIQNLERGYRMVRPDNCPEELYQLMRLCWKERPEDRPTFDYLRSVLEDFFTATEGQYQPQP
Turning to `COc1ccc(Cc2nccc3cc(OC)c(OC)cc23)cc1OC` [PAPAVERINE], the IC50 result was “Not Active” and the Ki result is given as “Not Active”.
Consider `OCCN1CCN(CCCN2c3ccccc3Sc3ccc(Cl)cc32)CC1` [PERPHENAZINE], for which the IC50 entry was “Not Active” and the Ki result is “Not Active”.
Regarding `CCCCC1C(=O)N(c2ccccc2)N(c2ccccc2)C1=O` [PHENYLBUTAZONE], the IC50 result was “Not Active” and the Ki entry is “Not Active”.
`Cc1cccc(Nc2cc(Cl)nc(SCC(=O)O)n2)c1C` [PIRINIXIC ACID]: the 50% inhibitory concentration (IC50) result was “Not Active” and the Ki result is “Not Active”.
In the case of `CC[C@H](C)C(=O)O[C@H]1C[C@H](O)C=C2C=C[C@H](C)[C@H](CC[C@@H](O)C[C@@H](O)CC(=O)O)[C@H]21` [PRAVASTATIN], the half-inhibitory concentration (IC50) result is on record as “Not Active” and the Ki entry is reported as “Not Active”.
For the compound `CC(C)(Sc1cc(C(C)(C)C)c(O)c(C(C)(C)C)c1)Sc1cc(C(C)(C)C)c(O)c(C(C)(C)C)c1` [PROBUCOL], the IC50 entry was “Not Active” and the Ki result is “Not Active”.
On to COBALT(II) ACETYLACETONATE, for which the IC50 result was “Not Active” and the Ki result is “Not Active”.
In the case of INSULIN HUMAN, the IC50 result is recorded as “Not Active” and the Ki result is reported as “Not Active”.
As to POLYVINYL ALCOHOL, the IC50 entry is given as “Not Active” and the Ki result is recorded as “Not Active”.

For the next data set, the target named is Tyrosine-protein kinase Fyn (Homo sapiens, UniProt P06241). The data set can be described thus: biochemical. The format is cell-based, Insect cells. To be noted: insect cells.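 Also: enzymatic inhibition of Fyn kinase activity measured with Poly(Glu:Tyr) as the phosphorylation substrate; in other assays of this panel Not Active means under 50% inhibition at 10 µM.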
Chain of Tyrosine-protein kinase Fyn (P06241 whole entry): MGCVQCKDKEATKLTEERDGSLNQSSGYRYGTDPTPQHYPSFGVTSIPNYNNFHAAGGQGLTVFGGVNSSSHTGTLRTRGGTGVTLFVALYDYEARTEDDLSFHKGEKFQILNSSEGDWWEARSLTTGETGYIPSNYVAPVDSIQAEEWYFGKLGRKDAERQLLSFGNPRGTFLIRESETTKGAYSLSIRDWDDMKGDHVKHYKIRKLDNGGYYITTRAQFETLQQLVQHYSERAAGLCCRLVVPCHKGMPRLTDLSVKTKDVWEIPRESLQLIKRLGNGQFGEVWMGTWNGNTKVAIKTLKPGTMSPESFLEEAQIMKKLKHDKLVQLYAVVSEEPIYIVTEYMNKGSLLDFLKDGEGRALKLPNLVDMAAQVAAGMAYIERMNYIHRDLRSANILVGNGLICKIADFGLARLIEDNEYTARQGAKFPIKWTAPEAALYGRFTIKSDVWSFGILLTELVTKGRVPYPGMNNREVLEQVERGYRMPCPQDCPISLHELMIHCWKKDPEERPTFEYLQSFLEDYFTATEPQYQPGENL
`COc1ccc(Cc2nccc3cc(OC)c(OC)cc23)cc1OC` [PAPAVERINE]: the IC50 result is “Not Active”.
On the same count and under the same terms, as for `OCCN1CCN(CCCN2c3ccccc3Sc3ccc(Cl)cc32)CC1` [PERPHENAZINE], the entry is “Not Active”; as for `CCCCC1C(=O)N(c2ccccc2)N(c2ccccc2)C1=O` [PHENYLBUTAZONE], “Not Active”; as for `Cc1cccc(Nc2cc(Cl)nc(SCC(=O)O)n2)c1C` [PIRINIXIC ACID], “Not Active”.
Same read-out and setting: for `CC[C@H](C)C(=O)O[C@H]1C[C@H](O)C=C2C=C[C@H](C)[C@H](CC[C@@H](O)C[C@@H](O)CC(=O)O)[C@H]21` [PRAVASTATIN] the value was “Not Active”; for `CC(C)(Sc1cc(C(C)(C)C)c(O)c(C(C)(C)C)c1)Sc1cc(C(C)(C)C)c(O)c(C(C)(C)C)c1` [PROBUCOL], “Not Active”.
For the compound COBALT(II) ACETYLACETONATE, the IC50 entry is on record as “Not Active” and the Ki entry is recorded as “Not Active”.
With INSULIN HUMAN, the IC50 entry is listed as “Not Active” and the Ki entry is listed as “Not Active”.
Regarding POLYVINYL ALCOHOL, the IC50 result is “Not Active” and the Ki result was “Not Active”.

Test system in a further data set: not listed separately
The experiment in a line: DRUGMATRIX: Nicotinic Acetylcholine radioligand binding (ligand: [125I] Epibatidine). The format is cell membranes, Membrane. To be noted: imr-32; Not Active = under 50% inhibition at 10 µM.
On to `COc1ccc(Cc2nccc3cc(OC)c(OC)cc23)cc1OC` [PAPAVERINE], for which the IC50 entry is recorded as “Not Active” and the Ki entry was “Not Active”.
For `OCCN1CCN(CCCN2c3ccccc3Sc3ccc(Cl)cc32)CC1` [PERPHENAZINE], the concentration for half-maximal inhibition (IC50) entry is given as “Not Active” and the Ki entry is “Not Active”.
Turning to `CCCCC1C(=O)N(c2ccccc2)N(c2ccccc2)C1=O` [PHENYLBUTAZONE], the IC50 entry is listed as “Not Active” and the Ki result is reported as “Not Active”.
With `Cc1cccc(Nc2cc(Cl)nc(SCC(=O)O)n2)c1C` [PIRINIXIC ACID], the concentration for half-maximal inhibition (IC50) result is given as “Not Active” and the Ki entry is recorded as “Not Active”.
`CC[C@H](C)C(=O)O[C@H]1C[C@H](O)C=C2C=C[C@H](C)[C@H](CC[C@@H](O)C[C@@H](O)CC(=O)O)[C@H]21` [PRAVASTATIN]: the IC50 entry is “Not Active” and the Ki result is on record as “Not Active”.
With `CC(C)(Sc1cc(C(C)(C)C)c(O)c(C(C)(C)C)c1)Sc1cc(C(C)(C)C)c(O)c(C(C)(C)C)c1` [PROBUCOL], the IC50 entry is “Not Active” and the Ki entry was “Not Active”.
Turning to COBALT(II) ACETYLACETONATE, the IC50 result is “Not Active” and the Ki result was “Not Active”.
For the compound INSULIN HUMAN, the IC50 result was “Not Active” and the Ki result is given as “Not Active”.
In the case of POLYVINYL ALCOHOL, the IC50 result is listed as “Not Active” and the Ki entry was “Not Active”.

The next data set has as its target Tyrosine-protein kinase Lck (Homo sapiens, UniProt P06239). The data set can be described thus: DRUGMATRIX: Protein Tyrosine Kinase, LCK enzyme inhibition (substrate: Poly(Glu:Tyr)). Type of data set: cell-based, Insect cells. To be noted: insect cells; Not Active = under 50% inhibition at 10 µM.
Regarding `COc1ccc(Cc2nccc3cc(OC)c(OC)cc23)cc1OC` [PAPAVERINE], the IC50 result is “Not Active”.
For `OCCN1CCN(CCCN2c3ccccc3Sc3ccc(Cl)cc32)CC1` [PERPHENAZINE], the IC50 entry is “Not Active”.
As to `CCCCC1C(=O)N(c2ccccc2)N(c2ccccc2)C1=O` [PHENYLBUTAZONE], the IC50 result is “Not Active”.
On to `Cc1cccc(Nc2cc(Cl)nc(SCC(=O)O)n2)c1C` [PIRINIXIC ACID], for which the IC50 result was “Not Active”.
On to `CC[C@H](C)C(=O)O[C@H]1C[C@H](O)C=C2C=C[C@H](C)[C@H](CC[C@@H](O)C[C@@H](O)CC(=O)O)[C@H]21` [PRAVASTATIN], for which the IC50 entry is reported as “Not Active”.
On to `CC(C)(Sc1cc(C(C)(C)C)c(O)c(C(C)(C)C)c1)Sc1cc(C(C)(C)C)c(O)c(C(C)(C)C)c1` [PROBUCOL], for which the IC50 result was “Not Active”.
As for COBALT(II) ACETYLACETONATE, the IC50 entry is “Not Active” and the Ki entry is “Not Active”.
Consider POLYVINYL ALCOHOL, for which the IC50 entry is recorded as “Not Active” and the Ki entry was “Not Active”.

The data set is the same for the next values; noted with them: insect cells; Not Active = under 50% inhibition at 10 µM; read-out: IC50.
For the compound INSULIN HUMAN, the IC50 was 18.1 µM.

Test system in another data set: not listed separately
The experiment in a line: DRUGMATRIX: Phosphodiesterase PDE3 enzyme inhibition (substrate: [3H]cAMP + cAMP). To be noted: platelet; Not Active = under 50% inhibition at 10 µM. Type of data set: tissue-based, Homo sapiens.
`OCCN1CCN(CCCN2c3ccccc3Sc3ccc(Cl)cc32)CC1` [PERPHENAZINE]: the IC50 result was “Not Active” and the Ki entry was “Not Active”.
In the case of `CCCCC1C(=O)N(c2ccccc2)N(c2ccccc2)C1=O` [PHENYLBUTAZONE], the IC50 entry was “Not Active” and the Ki entry was “Not Active”.
With `Cc1cccc(Nc2cc(Cl)nc(SCC(=O)O)n2)c1C` [PIRINIXIC ACID], the IC50 entry was “Not Active” and the Ki result is listed as “Not Active”.
Regarding `CC[C@H](C)C(=O)O[C@H]1C[C@H](O)C=C2C=C[C@H](C)[C@H](CC[C@@H](O)C[C@@H](O)CC(=O)O)[C@H]21` [PRAVASTATIN], the IC50 entry is recorded as “Not Active” and the Ki result is given as “Not Active”.
Consider `CC(C)(Sc1cc(C(C)(C)C)c(O)c(C(C)(C)C)c1)Sc1cc(C(C)(C)C)c(O)c(C(C)(C)C)c1` [PROBUCOL], for which the IC50 entry was “Not Active” and the Ki entry is recorded as “Not Active”.
As for COBALT(II) ACETYLACETONATE, the IC50 entry was “Not Active” and the Ki entry is recorded as “Not Active”.
In the case of INSULIN HUMAN, the IC50 result is recorded as “Not Active” and the Ki entry is reported as “Not Active”.
For POLYVINYL ALCOHOL, the IC50 result is given as “Not Active” and the Ki entry is reported as “Not Active”.

The same data set, now with this note: platelet; Not Active = under 50% inhibition at 10 µM; read-out: IC50.
`COc1ccc(Cc2nccc3cc(OC)c(OC)cc23)cc1OC` [PAPAVERINE]: the IC50 amounted to 0.665 µM.

In a further data set the target is T1, B2 bradykinin receptor (Homo sapiens, UniProt P30411). Also: in other assays of this panel Not Active means under 50% inhibition at 10 µM.
T1 sequence (P30411 whole entry): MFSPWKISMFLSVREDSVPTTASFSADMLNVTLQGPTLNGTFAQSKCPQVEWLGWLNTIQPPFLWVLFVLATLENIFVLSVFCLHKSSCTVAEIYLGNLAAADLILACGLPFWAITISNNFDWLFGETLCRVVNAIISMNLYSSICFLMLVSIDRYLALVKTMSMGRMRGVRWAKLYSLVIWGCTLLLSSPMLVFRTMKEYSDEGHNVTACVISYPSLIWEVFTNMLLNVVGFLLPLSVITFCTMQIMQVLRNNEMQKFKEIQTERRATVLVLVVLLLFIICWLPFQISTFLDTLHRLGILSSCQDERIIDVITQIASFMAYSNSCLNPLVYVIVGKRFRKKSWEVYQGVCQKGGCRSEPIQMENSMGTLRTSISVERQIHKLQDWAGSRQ
Assay: not given
Type of data set: cell membranes, Membrane. To be noted: chem-1.
Turning to `COc1ccc(Cc2nccc3cc(OC)c(OC)cc23)cc1OC` [PAPAVERINE], the IC50 result is listed as “Not Active”.
Still for that read-out and setting: for `OCCN1CCN(CCCN2c3ccccc3Sc3ccc(Cl)cc32)CC1` [PERPHENAZINE] the value was “Not Active”.
On the same count and under the same terms, as for `CCCCC1C(=O)N(c2ccccc2)N(c2ccccc2)C1=O` [PHENYLBUTAZONE], the entry is “Not Active”.
Consider `Cc1cccc(Nc2cc(Cl)nc(SCC(=O)O)n2)c1C` [PIRINIXIC ACID], for which the IC50 entry was “Not Active”.
Same read-out and setting: for `CC[C@H](C)C(=O)O[C@H]1C[C@H](O)C=C2C=C[C@H](C)[C@H](CC[C@@H](O)C[C@@H](O)CC(=O)O)[C@H]21` [PRAVASTATIN] the value was “Not Active”; for `CC(C)(Sc1cc(C(C)(C)C)c(O)c(C(C)(C)C)c1)Sc1cc(C(C)(C)C)c(O)c(C(C)(C)C)c1` [PROBUCOL], “Not Active”.
Take COBALT(II) ACETYLACETONATE: the IC50 entry was “Not Active” and the Ki result is given as “Not Active”.
As to INSULIN HUMAN, the IC50 result is “Not Active” and the Ki result is recorded as “Not Active”.
Turning to POLYVINYL ALCOHOL, the IC50 result was “Not Active” and the Ki result was “Not Active”.

Test system in the next data set: not listed separately
The data set can be described thus: DRUGMATRIX: Tumor Necrosis Factor (TNF), Non-Selective radioligand binding (ligand: [125I] TNF-alpha). To be noted: u-937; Not Active = under 50% inhibition at 10 µM. The format is cell membranes, Membrane.
Take `COc1ccc(Cc2nccc3cc(OC)c(OC)cc23)cc1OC` [PAPAVERINE]: the IC50 result is recorded as “Not Active” and the Ki entry is “Not Active”.
Consider `OCCN1CCN(CCCN2c3ccccc3Sc3ccc(Cl)cc32)CC1` [PERPHENAZINE], for which the IC50 result was “Not Active” and the Ki result is given as “Not Active”.
Regarding `CCCCC1C(=O)N(c2ccccc2)N(c2ccccc2)C1=O` [PHENYLBUTAZONE], the IC50 entry is “Not Active” and the Ki result was “Not Active”.
For `Cc1cccc(Nc2cc(Cl)nc(SCC(=O)O)n2)c1C` [PIRINIXIC ACID], the IC50 entry is recorded as “Not Active” and the Ki entry is “Not Active”.
`CC[C@H](C)C(=O)O[C@H]1C[C@H](O)C=C2C=C[C@H](C)[C@H](CC[C@@H](O)C[C@@H](O)CC(=O)O)[C@H]21` [PRAVASTATIN]: the 50% inhibitory concentration (IC50) entry is given as “Not Active” and the Ki entry is “Not Active”.
In the case of `CC(C)(Sc1cc(C(C)(C)C)c(O)c(C(C)(C)C)c1)Sc1cc(C(C)(C)C)c(O)c(C(C)(C)C)c1` [PROBUCOL], the IC50 entry is “Not Active” and the Ki entry is “Not Active”.
Consider COBALT(II) ACETYLACETONATE, for which the IC50 entry was “Not Active” and the Ki result is “Not Active”.
On to INSULIN HUMAN, for which the IC50 entry is on record as “Not Active” and the Ki result is “Not Active”.
As to POLYVINYL ALCOHOL, the IC50 result is “Not Active” and the Ki result is “Not Active”.

Values taken from ChEMBL document CHEMBL1909046, “DrugMatrix in vitro pharmacology data”.
